Patent publication US20220251095A1, “TRICYCLIC COMPOUND, PREPARATION METHOD THEREFOR AND USE THEREOF” (SHANGHAI JEMINCARE PHARMACEUTICALS CO., LTD., priority 2019, published 2022)

Target: T1, coagulation factor XIa protease (FXIa) (Homo sapiens, UniProt P03951)
T1 construct: purchased Abcam ab62411
Test: Inhibition of coagulation factor XIa (FXIa), chromogenic substrate, absorbance at 405
Type: biochemical
Conditions: FXIa 0.05 μg/mL, substrate 2.5 mM, 37° C. 15 minutes
Protocol: Coagulation factor XIa protease (FXIa) decomposed the specific substrate to produce yellow p-nitroaniline (pNA), pNA had strong absorption at 405 nm. The inhibitory activity of the compounds on coagulation factor XIa was determined by assaying the absorbance of the compounds at […].
The coagulation factor XIa protease used in the experiment was purchased from Abcam Company, Item No. ab62411; the coagulation factor XIa-specific substrate was purchased from HYPHEN BioMed, Item No. Biophen cs-21 (66); tris-HCl was purchased from Invitrogen, Item No. 15567-027; NaCl was purchased from ABCONE, Item No. S39168; Twain 20 was purchased from Amersco, Item No. 0777-1L.
(§1) The compounds were dissolved in 100% DMSO, 20 mM, and stored at room temperature in a nitrogen cabinet.
a. 20 mM of the tested compound was diluted to 2 mM using 100% DMSO, and the reference compound was diluted to 0.4 mM; the compound was continuously diluted with a 3-fold gradient at 10 concentration points using a Bravo liquid workstation.
b. The ECHO liquid workstation was used to transfer 10 nL of compound to the corresponding 384-well experimental plate with double replicate wells; the final concentrations of compound reactions were 1000, 333.3, 111.1, 37.0, 12.3, 4.1, 1.37, 0.46, 0.15, and 0.05 nM. The final concentrations of reference compounds were 200, 66.7, 22.2, 7.4, 2.47, 0.82, 0.27, 0.09, 0.03, 0.01 nM.
c. 10 nL DMSO and 10 nL 0.4 mM reference compounds were transferred to high signal control pores and low signal control pores respectively.
d. 0.1 μg/mL FXIa enzyme solution was prepared with buffer solution, and 10 μL enzyme solution was added to 384-well experimental plate, 5 mM substrate solution was prepared using buffer solution, and […] substrate solution was added to a 384-well experimental plate. The final concentration of FXIa was 0.05 μg/mL and the final concentration of the substrate was 2.5 mM.
e. The 384-hole experimental plate was centrifuged and incubated at 37° C. for 15 minutes.
f. The absorbance was measured at 405 nm using EnVision.

T1 sequence (P03951 388-625 limits assumed): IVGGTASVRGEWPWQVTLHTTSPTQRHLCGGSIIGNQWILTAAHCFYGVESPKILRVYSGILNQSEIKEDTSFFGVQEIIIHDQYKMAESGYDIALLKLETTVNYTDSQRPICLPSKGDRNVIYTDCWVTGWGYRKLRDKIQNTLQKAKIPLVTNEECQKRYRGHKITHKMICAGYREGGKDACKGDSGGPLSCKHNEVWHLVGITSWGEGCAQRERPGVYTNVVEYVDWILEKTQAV
T1 sequence (P03951 19-387 partner limits assumed): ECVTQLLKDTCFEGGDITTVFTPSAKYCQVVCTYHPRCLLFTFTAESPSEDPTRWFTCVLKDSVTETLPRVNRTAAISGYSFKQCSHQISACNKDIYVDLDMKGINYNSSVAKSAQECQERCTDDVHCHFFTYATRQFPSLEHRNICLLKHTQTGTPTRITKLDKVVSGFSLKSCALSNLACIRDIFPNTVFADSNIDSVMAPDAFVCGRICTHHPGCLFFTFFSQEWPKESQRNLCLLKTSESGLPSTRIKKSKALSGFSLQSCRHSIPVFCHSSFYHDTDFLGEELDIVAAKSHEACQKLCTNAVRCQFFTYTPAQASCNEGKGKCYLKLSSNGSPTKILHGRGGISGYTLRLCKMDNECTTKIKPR

IC50	SMILES
0.76 nM	Cn1nc(N)c2ccc(-c3[nH]c([C@@H]4[C@H]5C[C@H]5c5cc(-c6cc(Cl)ccc6-n6cnnn6)cc(=O)n54)nc3F)cc21 [Embodiment 76]
6.36 nM	O=C1CCc2cc(-c3[nH]c([C@@H]4[C@H]5C[C@H]5c5cc(-c6cc(Cl)ccc6-n6cc(C(F)(F)F)nn6)cc(=O)n54)nc3Cl)ccc2N1 [Embodiment 80]
5.37 nM	O=C1CCc2cc(-c3[nH]c([C@@H]4[C@H]5C[C@H]5c5cc(-c6cc(Cl)ccc6-n6cc(C(F)(F)F)nn6)cc(=O)n54)nc3F)ccc2N1 [Embodiment 81]
3.93 nM	O=C1CCc2c(ccc(-c3cnc([C@@H]4[C@H]5C[C@H]5c5nc(-c6cc(Cl)ccc6-n6cc(Cl)nn6)cc(=O)n54)[nH]3)c2Cl)N1 [Embodiment 91]
11.9 nM	Cn1nc(N)c2ccc(-c3cnc([C@@H]4[C@H]5C[C@H]5c5cc(-c6cc(Cl)ccc6-n6cnnn6)cc(=O)n54)[nH]3)cc21 [Embodiment 34]
4.63 nM	O=C1CCc2cc(-c3[nH]c([C@@H]4[C@H]5C[C@H]5c5cc(-c6cc(Cl)ccc6-n6cc(Cl)nn6)cc(=O)n54)nc3F)ccc2N1 [Embodiment 31]
8.65 nM	Nc1ccc(-c2cnc([C@@H]3[C@H]4C[C@H]4c4cc(-c5cc(Cl)ccc5-n5cnnn5)cc(=O)n43)[nH]2)c(F)c1F [Embodiment 24]
2.84 nM	Nc1ccc(-c2[nH]c([C@@H]3[C@H]4C[C@H]4c4nc(-c5cc(Cl)ccc5-n5cnnn5)cc(=O)n43)nc2F)c(F)n1 [Embodiment 14]
6.7 nM	Nc1ccc(-c2[nH]c([C@@H]3[C@H]4C[C@H]4c4cc(-c5cc(Cl)ccc5-n5cnnn5)cc(=O)n43)nc2F)c(F)n1 [Embodiment 2]
1.02 nM	Nc1noc2cc(-c3[nH]c([C@@H]4[C@H]5C[C@H]5c5cc(-c6cc(Cl)ccc6-n6cc(C(F)(F)F)nn6)cc(=O)n54)nc3F)ccc12 [Embodiment 79]
8.32 nM	O=C1Nc2ccc(-c3cnc([C@@H]4[C@H]5C[C@H]5c5cc(-c6cc(Cl)ccc6-n6cnnn6)cc(=O)n54)[nH]3)cc2CO1 [Embodiment 57]
2.16 nM	CNc1noc2cc(-c3[nH]c([C@@H]4[C@H]5C[C@H]5c5cc(-c6cc(Cl)ccc6-n6cc(Cl)nn6)cc(=O)n54)nc3F)ccc12 [Embodiment 70]
5.18 nM	O=c1cnc2cc(-c3cnc([C@@H]4[C@H]5C[C@H]5c5cc(-c6cc(Cl)ccc6-n6cnnn6)cc(=O)n54)[nH]3)ccc2[nH]1 [Embodiment 55]
8.71 nM	O=c1cc(-c2cc(Cl)ccc2-n2cnnn2)cc2n1[C@H](c1ncc(-c3ccc4c(c3)CCc3cn[nH]c3-4)[nH]1)[C@H]1C[C@@H]21 [Embodiment 42]
6.76 nM	O=C1COc2cc(-c3[nH]c([C@@H]4[C@H]5C[C@H]5c5cc(-c6cc(Cl)ccc6-n6cc(Cl)nn6)cc(=O)n54)nc3F)ccc2N1 [Embodiment 62]
2.72 nM	Nc1n[nH]c2cc(-c3cnc([C@@H]4[C@H]5C[C@H]5c5cc(-c6cc(Cl)ccc6-n6cc(Cl)nn6)cc(=O)n54)[nH]3)ccc12 [Embodiment 32]
3.25 nM	O=c1[nH]c2ccc(-c3[nH]c([C@@H]4[C@H]5C[C@H]5c5cc(-c6cc(Cl)ccc6-n6cnnn6)cc(=O)n54)nc3F)cc2cc1C(F)(F)F [Embodiment 58]
0.82 nM	Nc1n[nH]c2cc(-c3cnc([C@@H]4[C@H]5C[C@H]5c5cc(-c6cc(Cl)ccc6-n6cnnn6)cc(=O)n54)[nH]3)ccc12 [Embodiment 15]

System: human plasma
Test: Anticoagulant effect on human blood in vitro (APTT clotting time, CT2.0)
Conditions: final concentration of compound corresponding to aPTT of the 2-fold blank control
Protocol: Activated partial thromboplastin time (APTT) measurement reagent was mixed with plasma and the reaction was carried out continuously resulting in a change in optical density up to the clotting point, and the clotting time (CT) was measured by optical turbidimetry using a semi-automatic coagulation analyzer. The in vitro anticoagulant activity of compounds on human blood was determined by detecting the clotting time of plasma treated with different concentrations of compounds, and the corresponding concentration of compounds prolonging clotting time was calculated.
Human plasma used in the experiment was purchased from HD Biosciences (Shanghai) Co., Ltd.; Activated partial thromboplastin time determination kit was purchased from Taizhou Zhongqin Shidi Biotechnology Co., Ltd., Item No. SS00220005.
as §1
a. The NaCl reagent in the kit was incubated half an hour in advance, and the APTT reagent was balanced to room temperature.
b. The compound was continuously diluted at 14 concentration points using a Bravo liquid workstation with a 2-fold gradient.
c. 0.75 μL of the compound was added to the measuring cup, double-replicate wells; 50 μL of plasma was added and 50 μL of APTT reagent was added, the mixture was mixed well and put into coagulation analyzer for incubation at 37° C. for 3 minutes.
d. APTT assay was started, 50 μL of NaCl was added to start the reaction, and the clotting time was counted.
e. Control clotting time was measured using 100% DMSO instead of the compound, and the final concentration of DMSO was 0.5%.
Data were curve-fitted using Graphpad Prism to calculate CT2.0, the final concentration of compound corresponding to aPTT of the 2-fold blank control was calculated.

SMILES	CT2.0
Cn1nc(N)c2ccc(-c3[nH]c([C@@H]4[C@H]5C[C@H]5c5cc(-c6cc(Cl)ccc6-n6cnnn6)cc(=O)n54)nc3F)cc21 [Embodiment 76]	0.43 µM
O=C1CCc2cc(-c3[nH]c([C@@H]4[C@H]5C[C@H]5c5cc(-c6cc(Cl)ccc6-n6cc(C(F)(F)F)nn6)cc(=O)n54)nc3Cl)ccc2N1 [Embodiment 80]	3.50 µM
O=C1CCc2cc(-c3[nH]c([C@@H]4[C@H]5C[C@H]5c5cc(-c6cc(Cl)ccc6-n6cc(C(F)(F)F)nn6)cc(=O)n54)nc3F)ccc2N1 [Embodiment 81]	2.28 µM
O=C1CCc2c(ccc(-c3cnc([C@@H]4[C@H]5C[C@H]5c5nc(-c6cc(Cl)ccc6-n6cc(Cl)nn6)cc(=O)n54)[nH]3)c2Cl)N1 [Embodiment 91]	2.27 µM
Cn1nc(N)c2ccc(-c3cnc([C@@H]4[C@H]5C[C@H]5c5cc(-c6cc(Cl)ccc6-n6cnnn6)cc(=O)n54)[nH]3)cc21 [Embodiment 34]	0.58 µM
O=C1CCc2cc(-c3[nH]c([C@@H]4[C@H]5C[C@H]5c5cc(-c6cc(Cl)ccc6-n6cc(Cl)nn6)cc(=O)n54)nc3F)ccc2N1 [Embodiment 31]	2.38 µM
Nc1ccc(-c2cnc([C@@H]3[C@H]4C[C@H]4c4cc(-c5cc(Cl)ccc5-n5cnnn5)cc(=O)n43)[nH]2)c(F)c1F [Embodiment 24]	0.90 µM
Nc1ccc(-c2[nH]c([C@@H]3[C@H]4C[C@H]4c4nc(-c5cc(Cl)ccc5-n5cnnn5)cc(=O)n43)nc2F)c(F)n1 [Embodiment 14]	0.55 µM
Nc1ccc(-c2[nH]c([C@@H]3[C@H]4C[C@H]4c4cc(-c5cc(Cl)ccc5-n5cnnn5)cc(=O)n43)nc2F)c(F)n1 [Embodiment 2]	0.55 µM
Nc1noc2cc(-c3[nH]c([C@@H]4[C@H]5C[C@H]5c5cc(-c6cc(Cl)ccc6-n6cc(C(F)(F)F)nn6)cc(=O)n54)nc3F)ccc12 [Embodiment 79]	0.72 µM
O=C1Nc2ccc(-c3cnc([C@@H]4[C@H]5C[C@H]5c5cc(-c6cc(Cl)ccc6-n6cnnn6)cc(=O)n54)[nH]3)cc2CO1 [Embodiment 57]	0.54 µM
CNc1noc2cc(-c3[nH]c([C@@H]4[C@H]5C[C@H]5c5cc(-c6cc(Cl)ccc6-n6cc(Cl)nn6)cc(=O)n54)nc3F)ccc12 [Embodiment 70]	1.32 µM
O=c1cnc2cc(-c3cnc([C@@H]4[C@H]5C[C@H]5c5cc(-c6cc(Cl)ccc6-n6cnnn6)cc(=O)n54)[nH]3)ccc2[nH]1 [Embodiment 55]	0.67 µM
O=c1cc(-c2cc(Cl)ccc2-n2cnnn2)cc2n1[C@H](c1ncc(-c3ccc4c(c3)CCc3cn[nH]c3-4)[nH]1)[C@H]1C[C@@H]21 [Embodiment 42]	1.08 µM
O=C1COc2cc(-c3[nH]c([C@@H]4[C@H]5C[C@H]5c5cc(-c6cc(Cl)ccc6-n6cc(Cl)nn6)cc(=O)n54)nc3F)ccc2N1 [Embodiment 62]	2.32 µM
Nc1n[nH]c2cc(-c3cnc([C@@H]4[C@H]5C[C@H]5c5cc(-c6cc(Cl)ccc6-n6cc(Cl)nn6)cc(=O)n54)[nH]3)ccc12 [Embodiment 32]	0.26 µM
O=c1[nH]c2ccc(-c3[nH]c([C@@H]4[C@H]5C[C@H]5c5cc(-c6cc(Cl)ccc6-n6cnnn6)cc(=O)n54)nc3F)cc2cc1C(F)(F)F [Embodiment 58]	1.21 µM
Nc1n[nH]c2cc(-c3cnc([C@@H]4[C@H]5C[C@H]5c5cc(-c6cc(Cl)ccc6-n6cnnn6)cc(=O)n54)[nH]3)ccc12 [Embodiment 15]	0.47 µM
